Results on 27 compounds are retold here after patent US20110065208A1, “DETERMINATION AND ESTIMATION OF ABSORPTION AND DISTRIBUTION OF SUBSTANCES IN BRAIN TISSUE” (SOVICELL GMBH, priority 2008, published 2011).

Usually Kd stands for a measure of binding affinity in units of concentration.

A short description of series [1]: Brain lipid-water partition coefficient log MAbrain (membrane affinity) on immobilized brain lipid membranes. It is filed as physicochemical. Particulars: for logMA_brain: Table 6, parameter set for free fraction in brain. The procedure: 440 mg of a brain lipid extract (Avanti Polar Lipids Inc., USA) are dissolved in 50 mL of chloroform. This solution is evaporated under reduced pressure in a glass flask in a rotating rotary evaporator, wherein a thin lipid film deposits on the wall.
The lipid film is swollen overnight in a water vapor atmosphere; subsequently, 88 mL of a buffer (20 mM HEPES, pH 7.0, 30 mM NaCl, 2 mM CaCl2) are added, and the lipid film is vesiculated by means of a high-pressure homogenizer.
5 g of the carrier material provided above are added to the vesicle solution thus produced and incubated overnight. Excess lipid is removed by washing three times with buffer (20 mM HEPES, pH 7.0, 30 mM NaCl, 2 mM CaCl2). Finally, this is followed by rebuffering in PBS (phosphate-buffered saline, 10 mM sodium phosphate, 0.9% NaCl, pH 7.4) and filling up to 25 mL with buffer. The suspension obtained is then used to determine the brain lipid-water partition coefficient, as described below.
To determine the brain lipid-water partition coefficient, a total of 5 wells of a 96-well microtiter plate are filled as follows: • Well 1: 405 μL PBS • Well 2: 375 μL PBS+30 μL suspension (see 2.) • Well 3: 357 μL PBS+48 μL suspension (see 2.) • Well 4: 338 μL PBS+77 μL suspension (see 2.) • Well 5: 405 μL PBS.
To each of these wells, 45 μL of a 500 μM solution of trifluoperazine in PBS/10% DMSO are added, and after mixing by resuspension, the solid body is separated from the supernatant by sedimentation. The concentration of the substance in the supernatant is quantified by UV measurement, and the brain lipid-water partition coefficient log MAbrain is calculated through the following equation: […]
In the equation are: • Vtotal Total volume per well • Vlipid Lipid volume per well • ctotal Substance concentration of wells 1 and 5 without binding partner • cwater Substance concentration in the supernatant of wells 2-4 with binding partner.
To determine the brain lipid-water partition coefficient, two 96-well microtiter plates are filled row by row as follows: • Row 1: 405 μL PBS • Row 2: 375 μL PBS+30 μL suspension (see 2.) • Row 3: 357 μL PBS+48 μL suspension (see 2.) • Row 4: 338 μL PBS+77 μL suspension (see 2.) • Row 5: 285 μL PBS+120 μL suspension (see 2.) • Row 6: 210 μL PBS+195 μL suspension (see 2.) • Row 7: 105 μL PBS+300 μL suspension (see 2.) • Row 8: 405 μL PBS.
A broad binding range is covered by this filling of the plates. […] After mixing by resuspension, the solid body is separated from the supernatant by sedimentation.
The concentration of the substance in the supernatant is quantified by HPLC, and the brain lipid-water partition coefficient log MAbrain is calculated through the abovementioned equation (4), wherein, in this case, Vtotal is the total volume per well, Vlipid is the lipid volume per well, ctotal is the substance concentration of rows 1 and 8 without binding partner, and cwater is the substance concentration in the supernatant of wells 2-7 with binding partner.

For series [2], the target named is HSA (human serum albumin) (Homo sapiens, UniProt P02768). In words: HSA binding constants (TRANSIL HSA Binding Kit). An excerpt: In the equation are: • [drug]bound: Concentration of bound substance • [drug]free: Concentration of free substance in the supernatant • [protein]: Protein concentration in the respective wells.
The test system of series [3] is T1, AGP (α1-acid glycoprotein).
T1 construct: fused on or other part: immobilised on silica beads (TRANSIL solid support)
In words: AGP binding constants (TRANSIL AGP Binding Kit).

The nature of series [4]: log K^B/F, bound to free fraction in blood plasma calculated from KD^HSA and KD^AGP. It is filed as in vitro ADME. Conditions: Table 4; calculated with [HSA] 588.2 μM, [AGP] 24.4 μM. The text has this: The log K^B/F value represents the logarithmized ratio of the bound fraction to the free fraction in blood plasma, which has been approximately calculated from the dissociation constants KD^AGP and KD^HSA according to:
[formula] • fu Free substance concentration in plasma • [drug]total^plasma Total substance concentration in plasma • [HSA]

The conditions of series [5]: cited from earlier work.
Series [6] in a line: log BB estimated by QSAR equation (9). Particulars: Table 5; validation set, calculated by equation (9). The procedure: To estimate the plasma-brain partition coefficients, a multilinear regression was carried out according to the equation:
log BB=A*log MAbrain+B*PSA+C*MW+D*log K^B/F+E. (6)

For series [7] the following is noted: Table 6; free fraction in brain; cited from earlier work.
Setting [8] is: Table 1, PBS pH 7.4, quantified by HPLC.
Setting [9] is: Table 4, repeated parameter set.
[10] abbreviates: Table 4, test set for multilinear regression.
Setting [11] is: Table 5, values from the literature.

SMILES strings stand for the structures. Where two headings read alike, the source gives them in different places.

Chain of HSA (human serum albumin) (P02768 25-609): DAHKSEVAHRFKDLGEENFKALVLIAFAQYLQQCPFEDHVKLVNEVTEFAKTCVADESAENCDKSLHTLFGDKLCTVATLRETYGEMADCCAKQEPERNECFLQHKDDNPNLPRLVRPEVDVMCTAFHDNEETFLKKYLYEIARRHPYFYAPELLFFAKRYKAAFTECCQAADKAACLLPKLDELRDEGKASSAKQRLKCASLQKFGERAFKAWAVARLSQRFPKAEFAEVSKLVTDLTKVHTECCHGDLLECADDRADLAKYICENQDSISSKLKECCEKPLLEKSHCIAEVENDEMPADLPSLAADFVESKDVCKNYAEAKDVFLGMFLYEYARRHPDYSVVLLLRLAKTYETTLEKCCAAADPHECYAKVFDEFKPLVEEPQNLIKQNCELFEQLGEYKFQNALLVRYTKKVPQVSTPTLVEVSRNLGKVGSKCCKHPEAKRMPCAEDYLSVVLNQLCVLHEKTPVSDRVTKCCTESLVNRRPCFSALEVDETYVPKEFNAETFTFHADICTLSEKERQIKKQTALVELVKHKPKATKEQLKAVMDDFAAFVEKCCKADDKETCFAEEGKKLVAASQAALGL

For the compound `CC(=O)Oc1ccccc1C(=O)O` [Acetylsalicylic acid, acetylsalicylic acid], the logMAbrain in series [1] (setting [8]) and in series [1] (setting [9]) was 1.40 each time. Besides, the Kd in series [2] worked out at 360 µM; in series [3], 460 µM. In series [4], the “logK^B/F” value is 0.23. Besides, the logBB in series [5] (setting [10]) is listed as −0.5.
`CN(C)CCC=C1c2ccccc2CCc2ccccc21` [Amitryptilline, amitryptilline] registered a logMA_brain in series [1] of 2.94. Further, the logBB_calc in series [6] is on record as 1.38. The fu_brain in series [7] was 0.009. Besides, the logBB in series [5] (setting [11]) is 0.87.
In the case of `Cc1cc(=O)n(-c2ccccc2)n1C` [Antipyrine, antipyrine], the logMAbrain in series [1] (setting [8]) and in series [1] (setting [9]) was 1.33 throughout. Also, the dissociation constant Kd was 2700 µM in series [2] and 380 µM in series [3] (Table 3, quantified by HPLC, read-out: KD^AGP). The “logK^B/F” value in series [4] is recorded as −0.54. For the same compound, the logBB in series [5] (setting [10]) is −0.1.
For `Cn1c(=O)c2c(ncn2C)n(C)c1=O` [Caffeine, caffeine], the logMAbrain in series [1] (setting [8]) and in series [1] (setting [9]) was 1.36 throughout. The compound also showed a logMA_brain in series [1] of 1.36. Moreover, in series [3], binding was put at a Kd of 580 µM. In series [7], the fu_brain is 0.52.
Take `NC(=O)N1c2ccccc2C=Cc2ccccc21` [Carbamazepine, carbamazepine]: in series [1], the logMA_brain came out at 1.79. Besides, in series [6], the logBB_calc is −0.09. Also, the fu_brain in series [7] is reported as 0.1185. In addition, the logBB in series [5] (setting [11]) is reported as 0.
Take `CN(C)CCCN1c2ccccc2Sc2ccc(Cl)cc21` [Chlorpromazine, chlorpromazine]: the logMAbrain in series [1] (setting [8]) and in series [1] (setting [9]) was 3.70 in each case. In series [1], this compound registered a logMA_brain of 3.70. Binding in series [3] was put at a Kd of 0.72 µM. Also, the fu_brain in series [7] is recorded as 0.002.
For `CN/C(=N/CCSCc1nc[nH]c1C)NC#N` [Cimetidine, cimetidine], the logMAbrain in series [1] (setting [8]) and in series [1] (setting [9]) was 1.80 throughout. Further, the equilibrium dissociation constant (Kd) in series [2] worked out at 920 µM; in series [3], 250 µM. Besides, the “logK^B/F” value in series [4] is −0.13. Also, the logBB in series [5] (setting [10]) was −1.42.
Take `Clc1cccc(Cl)c1N=C1NCCN1` [Clonidine, clonidine]: the logMAbrain in series [1] (setting [8]) and in series [1] (setting [9]) was 1.30 throughout. Moreover, the Kd was found to be 1900 µM in series [2] and 69 µM in series [3]. Besides, in series [4], the “logK^B/F” value is on record as −0.17. The logBB in series [5] (setting [10]) was 0.11.
Take `CNCCCN1c2ccccc2CCc2ccccc21` [Desipramine, desipramine]: the figures for the equilibrium dissociation constant (Kd) in series [2] and in series [3] were 200 µM and 5.1 µM, respectively. The logBB in series [5] (setting [10]) was 1.2.
On to `CNCCC(Oc1ccc(C(F)(F)F)cc1)c1ccccc1` (stereo not shown) [Fluoxetine, fluoxetine], for which the logMA_brain in series [1] was determined as 3.52. Also, the logBB_calc in series [6] was 1.29. Also, the fu_brain in series [7] is reported as 0.004.
`O=C(CCCN1CCC(O)(c2ccc(Cl)cc2)CC1)c1ccc(F)cc1` [Haloperidol]: the logMA_brain in series [1] is given as 2.7. For the same compound, the fu_brain in series [7] is reported as 0.011.
As to `CC(C)Cc1ccc(C(C)C(=O)O)cc1` (stereo not shown) [Ibuprofen, ibuprofen], the logMAbrain in series [1] (setting [8]) and in series [1] (setting [9]) was 1.70 each time. Besides, the dissociation constant Kd in series [3] came to 670 µM. Moreover, the “logK^B/F” value in series [4] is given as 3.14. Moreover, the logBB in series [5] (setting [10]) was −0.18.
Regarding `CN(C)CCCN1c2ccccc2CCc2ccccc21` [Imipramine, imipramine], the Kd in series [2] was found to be 220 µM; in series [3], 3.1 µM. For the same compound, the logBB in series [5] (setting [10]) is on record as 0.83.
Consider `COc1ccc2c(c1)c(CC(=O)O)c(C)n2C(=O)c1ccc(Cl)cc1` [Indomethacin, indomethacin], for which the logMAbrain in series [1] (setting [8]) and in series [1] (setting [9]) was 2.30 each time. In series [3], this compound came in with an equilibrium dissociation constant (Kd) of 43 µM. In addition, in series [4], the “logK^B/F” value is 2.97. Moreover, the logBB in series [5] (setting [10]) is −1.26.
For the compound `CCN(CC)CC(=O)Nc1c(C)cccc1C` [Lidocaine, lidocaine], the logBB_calc in series [6] was −0.08.
With `CN1CCN2c3ccccc3Cc3ccccc3C2C1` (stereo not shown) [Mianserin, mianserin], in series [6], the logBB_calc is listed as 1.47. For the same compound, the logBB in series [5] (setting [11]) is 0.99.
In turn, `CCCCC1C(=O)N(c2ccccc2)N(c2ccccc2)C1=O` [Phenylbutazone, phenylbutazone] showed a Kd in series [3] of 70 µM. Also, the logBB in series [5] (setting [10]) is −0.52.
Turning to `O=C1NC(=O)C(c2ccccc2)(c2ccccc2)N1` [Phenytoin], the fu_brain in series [7] is 0.082.
In the case of `CCN(CC)CCOC(=O)c1ccc(N)cc1` [Procaine, procaine], in series [6], the logBB_calc was −0.41. Moreover, the logBB in series [5] (setting [11]) is listed as 0.05.
Take `CN(C)CCCN1c2ccccc2Sc2ccccc21` [Promazine, promazine]: the logMAbrain in series [1] (setting [8]) and in series [1] (setting [9]) was 3.20 each time. Besides, the figures for the Kd in series [2] and in series [3] were 99 µM and 1.6 µM, respectively. For the same compound, the “logK^B/F” value in series [4] is 1.33. Moreover, in series [5] (setting [10]), the logBB is 1.23.
On to `CC(C)NCC(O)COc1cccc2ccccc12` (stereo not shown) [Propranolol, propranolol], for which the logMAbrain in series [1] (setting [8]) and in series [1] (setting [9]) was 2.70 in each case. The figures for the Kd in series [2] and in series [3] were 610 µM and 5.4 µM, respectively. In series [4], the “logK^B/F” value is reported as 0.74. Further, the logBB in series [5] (setting [10]) is 0.64.
Take `C=C[C@H]1C[N@@]2CC[C@H]1C[C@@H]2[C@@H](O)c1ccnc2ccc(OC)cc12` [Quinidine, quinidine]: the logMAbrain in series [1] (setting [8]) and in series [1] (setting [9]) was 2.10 throughout. This compound also had a Kd in series [3] of 13 µM.
For `CNC(=C[N+](=O)[O-])NCCSCc1ccc(CN(C)C)o1` [Ranitidine, ranitidine], in series [5] (setting [11]), the logBB is −1.23.
Consider `O=C(O)c1ccccc1O` [Salicylic acid, salicylic acid], for which the logMAbrain in series [1] (setting [8]) and in series [1] (setting [9]) was 1.30 throughout. The compound also showed an equilibrium dissociation constant (Kd) in series [3] of 640 µM. For the same compound, the “logK^B/F” value in series [4] is recorded as 1.37.
`Cn1c(=O)c2[nH]cnc2n(C)c1=O` [Theophylline, theophylline]: the affinity in series [3], expressed as Kd, was 810 µM.
For the compound `CSc1ccc2c(c1)N(CCC1CCCCN1C)c1ccccc1S2` (stereo not shown) [Thioridazine], the logMA_brain in series [1] was 3.74. Besides, in series [7], the fu_brain is 0.001.
For `CN1CCN(CCCN2c3ccccc3Sc3ccc(C(F)(F)F)cc32)CC1` [Trifluoperazine, trifluoperazine], the “logMAbrain” value in series [1] (PBS pH 7.4, quantified by UV measurement, 5 wells) amounted to 4.7; in series [1] (setting [8]), 4.70; in series [1] (setting [9]), 4.70. Further, the logMA_brain in series [1] turned out to be 4.70. The Kd in series [2] turned out to be 12 µM; in series [3], 0.25 µM. For the same compound, the “logK^B/F” value in series [4] was 2.17. The fu_brain in series [7] is 0.0007. Also, in series [5] (setting [10]), the logBB is reported as 1.44.
